The values that follow are results of earlier work, collected in patent publication US6692771B2, “Emulsions as solid dosage forms for oral administration” (CIMA Labs Inc., priority 2001, dated 2004).

The conditions of this series: orally administered dose; average value given in parentheses.

As for methyldopa, the average bioavailability is 25%. Regarding `Oc1ccc2c3c1O[C@H]1[C@@H](O)CC[C@@]4(O)[C@@H](C2)N(CC2CCC2)CC[C@]314` [nalbuphine], the average bioavailability entry was “approximately 17%”.
